Where two headings read alike, the source gives them in different places.
Target: NR1/NR2A (Homo sapiens (Human), UniProt Q05586+Q12879)
Experiment: FDSS Ca2+ influx inhibition assay in HEK293 cells expressing NR1/NR2A
Format: cell-based
Conditions: 3 μM glutamate, 3 μM glycine, 1 mM Ca2+
How it was run: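 Fluo-8-loaded HEK293 NR1/NR2A cells preincubated 10 min with compound at 10 μM final (0.1% DMSO) in Ca2+/Mg2+-free HBSS with 20 mM HEPES. Stimulated with 3 μM glutamate, 3 μM glycine, 1 mM Ca2+; FDSS recording for 3 min, end/baseline fluorescence ratio compared with MK801.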

[1] = inhibition relative to MK801, read-out: NR2A IC50

Chain of NR1/NR2A (Q12879 23-1464, other chains not shown): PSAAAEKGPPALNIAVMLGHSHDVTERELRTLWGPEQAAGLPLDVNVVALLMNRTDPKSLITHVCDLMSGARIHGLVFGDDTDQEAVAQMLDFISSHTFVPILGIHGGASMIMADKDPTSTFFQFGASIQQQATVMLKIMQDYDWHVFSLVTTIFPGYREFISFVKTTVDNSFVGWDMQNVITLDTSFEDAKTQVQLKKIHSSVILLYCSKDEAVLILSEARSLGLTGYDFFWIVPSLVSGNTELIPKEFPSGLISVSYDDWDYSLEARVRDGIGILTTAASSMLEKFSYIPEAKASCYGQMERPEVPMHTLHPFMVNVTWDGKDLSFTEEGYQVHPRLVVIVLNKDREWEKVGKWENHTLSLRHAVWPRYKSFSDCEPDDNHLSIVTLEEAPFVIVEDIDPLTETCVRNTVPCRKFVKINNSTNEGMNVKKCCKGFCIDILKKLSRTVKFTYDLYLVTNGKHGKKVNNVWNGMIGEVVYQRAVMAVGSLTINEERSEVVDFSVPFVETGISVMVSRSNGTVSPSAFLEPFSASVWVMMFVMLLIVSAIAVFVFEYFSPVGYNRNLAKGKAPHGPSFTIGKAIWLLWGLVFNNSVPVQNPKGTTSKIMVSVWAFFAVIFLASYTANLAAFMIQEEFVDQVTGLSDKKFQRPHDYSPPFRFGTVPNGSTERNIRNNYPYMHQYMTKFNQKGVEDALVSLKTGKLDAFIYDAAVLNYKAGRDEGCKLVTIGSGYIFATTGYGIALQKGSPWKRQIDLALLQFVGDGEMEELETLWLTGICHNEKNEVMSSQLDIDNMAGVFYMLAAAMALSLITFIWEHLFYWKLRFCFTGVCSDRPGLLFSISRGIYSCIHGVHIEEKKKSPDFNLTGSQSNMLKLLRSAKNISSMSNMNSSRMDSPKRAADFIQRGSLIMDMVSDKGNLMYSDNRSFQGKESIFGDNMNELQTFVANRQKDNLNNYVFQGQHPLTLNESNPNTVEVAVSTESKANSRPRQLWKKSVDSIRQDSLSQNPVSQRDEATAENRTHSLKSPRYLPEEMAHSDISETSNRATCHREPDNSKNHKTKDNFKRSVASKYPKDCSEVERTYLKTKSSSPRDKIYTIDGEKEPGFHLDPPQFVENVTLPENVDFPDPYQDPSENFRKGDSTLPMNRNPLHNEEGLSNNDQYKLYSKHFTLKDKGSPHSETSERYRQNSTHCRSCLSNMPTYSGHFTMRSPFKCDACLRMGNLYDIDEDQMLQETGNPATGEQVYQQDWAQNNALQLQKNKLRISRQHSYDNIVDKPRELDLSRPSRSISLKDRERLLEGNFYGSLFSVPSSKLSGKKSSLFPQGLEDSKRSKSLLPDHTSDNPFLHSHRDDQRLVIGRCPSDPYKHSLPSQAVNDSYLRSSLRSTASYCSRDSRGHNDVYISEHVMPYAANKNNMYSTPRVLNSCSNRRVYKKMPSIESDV

Row | IC50 (read-out: Binned Activity) | IC50 [1] | Structure (SMILES)
1 | 1 to 10 µM |  | Cc1ncc(CNC(=O)c2ccc(CNS(=O)(=O)c3ccc(F)cc3)cn2)s1 [5-(4-fluorobenzenesulfon-amidomethyl)-N-[(2-methyl-1,3-thiazol-5-yl)methyl]pyridine-2-carboxamide]
2 | 1 to 10 µM |  | Cc1ncc(CNC(=O)c2cnc(CNS(=O)(=O)c3ccc(F)cc3)cn2)s1 [5-(4-fluorobenzenesulfon-midomethyl)-N-[(2-methyl-1,3-thiazol-5-yl)methyl]pyrazine-2-carboxamide]
3 | 1 to 10 µM |  | Cc1ncc(CNC(=O)c2cnc(CNS(=O)(=O)c3cc(Cl)ccc3F)c(C)n2)s1 [5-(5-chloro-2-fluorobenzenesulfon-amidomethyl)-6-methyl-N-[(2-methyl-1,3-thiazol-5-yl)methyl]pyrazine-2-carboxamide]
4 | > 10 µM | 10 µM | Cc1ncc(CNC(=O)c2cnc(CNS(=O)(=O)c3cc(Cl)ccc3F)cn2)s1 [5-(5-chloro-2-fluorobenzenesulfon-amidomethyl)-N-[(2-methyl-1,3-thiazol-5-yl)methyl]pyrazine-2-carboxamide]
5 | > 10 µM | 10 µM | Cc1ncc(CNC(=O)c2ccc(CNS(=O)(=O)c3cc(Cl)ccc3F)cn2)s1 [5-(5-chloro-2-fluorobenzenesulfon-amidomethyl)-N-[(2-methyl-1,3-thiazol-5-yl)methyl]pyridine-2-carboxamide]
6 | > 10 µM | 10 µM | Cc1ncc(CNC(=O)c2ccc(CNS(=O)(=O)c3ccc(Cl)s3)cn2)s1 [5-(5-chlorothiophene-2-sulfonamidomethyl)-N-[(2-methyl-1,3-thiazol-5-yl)methyl]pyridine-2-carboxamide]
7 | > 10 µM | 10 µM | Cc1ncc(CNC(=O)c2ccc(CNS(=O)(=O)c3ccc(Cl)nc3)cn2)s1 [5-(6-chloropyridine-3-sulfonamidomethyl)-N-[(2-methyl-1,3-thiazol-5-yl)methyl]pyridine-2-carboxamide]
8 | > 10 µM | 10 µM | Cc1ncc(CNC(=O)c2ccc(CNS(=O)(=O)c3ccc(Cl)c4nonc34)cn2)s1 [5-(7-chloro-2,1,3-benzoxadiazole-4-sulfonamidomethyl)-N-[(2-methyl-1,3-thiazol-5-yl)methyl]pyridine-2-carboxamide]
9 | > 10 µM | 10 µM | Cc1ncc(CNC(=O)c2ccc(CNS(=O)(=O)c3ccoc3)cn2)s1 [5-(furan-3-sulfonamidomethyl)-N-[(2-methyl-1,3-thiazol-5-yl)methyl]pyridine-2-carboxamide]
10 | > 10 µM | 10 µM | Cc1ncc(CNC(=O)c2cnc(CNC(=O)c3ccc(Cl)cc3Cl)cn2)s1 [5-{[(2,4-dichlorophenyl)form-amido]methyl}-N-[(2-methyl-1,3-thiazol-5-yl)methyl]pyrazine-2-carboxamide]
11 | > 10 µM | 10 µM | Cc1ncc(CNC(=O)c2ccc(CNC(=O)c3ccc(Cl)cc3Cl)cn2)s1 [5-{[(2,4-dichlorophenyl)form-amido]methyl}-N-[(2-methyl-1,3-thiazol-5-yl)methyl]pyridine-2-carboxamide]
12 | > 10 µM | 10 µM | Cc1ncc(CNC(=O)c2cnc(CNC(=O)c3ccc(Cl)c(Cl)c3)cn2)s1 [5-{[(3,4-dichlorophenyl)form-amido]methyl}-N-[(2-methyl-1,3-thiazol-5-yl)methyl]pyrazine-2-carboxamide]
13 | > 10 µM | 10 µM | Cc1ncc(CNC(=O)c2ccc(CNC(=O)c3ccc(Cl)c(Cl)c3)cn2)s1 [5-{[(3,4-dichlorophenyl)form-amido]methyl}-N-[(2-methyl-1,3-thiazol-5-yl)methyl]pyridine-2-carboxamide]
14 | > 10 µM | 10 µM | Cc1ncc(CNC(=O)c2cnc(CNC(=O)c3cc(F)cc(F)c3)c(C)n2)s1 [5-{[(3,5-difluorophenyl)form-amido]methyl}-6-methyl-N-[(2-methyl-1,3-thiazol-5-yl)methyl]pyrazine-2-carboxamide]
15 | > 10 µM | 10 µM | Cc1ncc(CNC(=O)c2cnc(CNC(=O)c3cc(F)cc(F)c3)cn2)s1 [5-{[(3,5-difluorophenyl)form-amido]methyl}-N-[(2-methyl-1,3-thiazol-5-yl)methyl]pyrazine-2-carboxamide]
16 | > 10 µM | 10 µM | Cc1ncc(CNC(=O)c2ccc(CNC(=O)c3cc(F)cc(F)c3)cn2)s1 [5-{[(3,5-difluorophenyl)form-amido]methyl}-N-[(2-methyl-1,3-thiazol-5-yl)methyl]pyridine-2-carboxamide]
17 | > 10 µM | 10 µM | Cc1ncc(CNC(=O)c2cnc(CNC(=O)c3cccc(Cl)c3C)c(C)n2)s1 [5-{[(3-chloro-2-methylphenyl)formamido]methyl}-6-methyl-N-[(2-methyl-1,3-thiazol-5-yl)methyl]pyrazine-2-carboxamide]
18 | > 10 µM | 10 µM | Cc1ncc(CNC(=O)c2ccc(CNC(=O)c3cccc(Cl)c3C)cn2)s1 [5-{[(3-chloro-2-methylphenyl)formamido]methyl}-N-[(2-methyl-1,3-thiazol-5-yl)methyl]pyridine-2-carboxamide]

Row | IC50 (read-out: Binned Activity) | IC50 [1] | Structure (SMILES)
19 | > 10 µM | 10 µM | Cc1ncc(CNC(=O)c2cnc(CNC(=O)c3cccc(Cl)c3)cn2)s1 [5-{[(3-chlorophenyl)formamido]methyl}-N-[(2-methyl-1,3-thiazol-5-yl)methyl]pyrazine-2-carboxamide]
20 | > 10 µM | 10 µM | Cc1ncc(CNC(=O)c2cnc(CNC(=O)c3cccc(C#N)c3)c(C)n2)s1 [5-{[(3-cyanophenyl)formamido]methyl}-6-methyl-N-[(2-methyl-1,3-thiazol-5-yl)methyl]pyrazine-2-carboxamide]
21 | > 10 µM | 10 µM | Cc1ncc(CNC(=O)c2cnc(CNC(=O)c3cccc(C#N)c3)cn2)s1 [5-{[(3-cyanophenyl)formamido]methyl}-N-[(2-methyl-1,3-thiazol-5-yl)methyl]pyrazine-2-carboxamide]
22 | > 10 µM | 10 µM | Cc1ncc(CNC(=O)c2ccc(CNC(=O)c3cccc(C#N)c3)cn2)s1 [5-{[(3-cyanophenyl)formamido]methyl}-N-[(2-methyl-1,3-thiazol-5-yl)methyl]pyridine-2-carboxamide]
23 | > 10 µM | 10 µM | Cc1ncc(CNC(=O)c2cnc(CNC(=O)c3cccc(F)c3)cn2)s1 [5-{[(3-fluorophenyl)formamido]methyl}-N-[(2-methyl-1,3-thiazol-5-yl)methyl]pyrazine-2-carboxamide]
24 | > 10 µM | 10 µM | Cc1ncc(CNC(=O)c2ccc(CNC(=O)c3cccc(F)c3)cn2)s1 [5-{[(3-fluorophenyl)formamido]methyl}-N-[(2-methyl-1,3-thiazol-5-yl)methyl]pyridine-2-carboxamide]
25 | > 10 µM | 10 µM | Cc1ncc(CNC(=O)c2cnc(CNC(=O)c3cc(Cl)ccc3F)c(C)n2)s1 [5-{[(5-chloro-2-fluorophenyl)formamido]methyl}-6-methyl-N-[(2-methyl-1,3-thiazol-5-yl)methyl]pyrazine-2-carboxamide]
26 | > 10 µM | 10 µM | Cc1ncc(CNC(=O)c2cnc(CNC(=O)c3cc(Cl)ccc3F)cn2)s1 [5-{[(5-chloro-2-fluorophenyl)formamido]methyl}-N-[(2-methyl-1,3-thiazol-5-yl)methyl]pyrazine-2-carboxamide]
27 | > 10 µM | 10 µM | Cc1ncc(CNC(=O)c2ccc(CNC(=O)c3cc(Cl)ccc3F)cn2)s1 [5-{[(5-chloro-2-fluorophenyl)formamido]methyl}-N-[(2-methyl-1,3-thiazol-5-yl)methyl]pyridine-2-carboxamide]
28 | > 10 µM | 10 µM | O=C(NC1CCS(=O)(=O)C1)c1ccc(CNS(=O)(=O)c2ccc(F)c(Cl)c2)nc1 (stereo not shown) [6-(3-chloro-4-fluorobenzenesulfon-amidomethyl)-N-(1,1-dioxo-1λ^6-thiolan-3-yl)pyridine-3-carboxamide]
29 | > 10 µM | 10 µM | O=C(NCc1ccno1)c1ccc(CNS(=O)(=O)c2ccc(F)c(Cl)c2)nc1 [6-(3-chloro-4-fluorobenzenesulfon-amidomethyl)-N-(1,2-oxazol-5-ylmethyl)pyridine-3-carboxamide]
30 | > 10 µM | 10 µM | O=C(NCc1cocn1)c1ccc(CNS(=O)(=O)c2ccc(F)c(Cl)c2)nn1 [6-(3-chloro-4-fluorobenzenesulfon-amidomethyl)-N-(1,3-oxazol-4-ylmethyl)pyridazine-3-carboxamide]
31 | > 10 µM | 10 µM | O=C(NCc1cocn1)c1ccc(CNS(=O)(=O)c2ccc(F)c(Cl)c2)nc1 [6-(3-chloro-4-fluorobenzenesulfon-amidomethyl)-N-(1,3-oxazol-4-ylmethyl)pyridine-3-carboxamide]
32 | > 10 µM | 10 µM | O=C(NCc1nccs1)c1ccc(CNS(=O)(=O)c2ccc(F)c(Cl)c2)nc1 [6-(3-chloro-4-fluorobenzenesulfon-amidomethyl)-N-(1,3-thiazol-2-ylmethyl)pyridine-3-carboxamide]
33 | > 10 µM | 10 µM | O=C(NCc1cncs1)c1ccc(CNS(=O)(=O)c2ccc(F)c(Cl)c2)nn1 [6-(3-chloro-4-fluorobenzenesulfon-amidomethyl)-N-(1,3-thiazol-5-ylmethyl)pyridazine-3-carboxamide]
34 | > 10 µM | 10 µM | O=C(NCc1cncs1)c1ccc(CNS(=O)(=O)c2ccc(F)c(Cl)c2)nc1 [6-(3-chloro-4-fluorobenzenesulfon-amidomethyl)-N-(1,3-thiazol-5-ylmethyl)pyridine-3-carboxamide]
35 | > 10 µM | 10 µM | O=C(NCc1ccco1)c1ccc(CNS(=O)(=O)c2ccc(F)c(Cl)c2)nn1 [6-(3-chloro-4-fluorobenzenesulfon-amidomethyl)-N-(furan-2-ylmethyl)pyridazine-3-carboxamide]
